# Legend:
# [1] = In vitro inhibitory concentration against growth of SNB19 glioblastoma cell line in clonogenic survival assay after 24 hr; format: functional, cell-based, Homo sapiens
# [2] = test system: U-87 MG; experiment: In vitro inhibitory concentration against growth of U87MG glioblastoma cell line in clonogenic survival assay after 24 hr; format: functional, cell-based, Homo sapiens, U-87MG ATCC
# [3] = Homo sapiens, Glioblastoma, 24 h
Compound,"IC50 [1, 3]","IC50 ([2]; Homo sapiens, U-87 MG, 24 h)",IC50 ([1]; glioblastoma),IC50 ([2]; u-87mg atcc)
O=NN(CCCl)C(=O)NCCCl [CARMUSTINE],2370 nM,1420 nM,,
CISPLATIN,,,810 nM,490 nM
CNC(=S)N(C)CCNc1c2ccccc2nc2ccccc12,2460 nM,1830 nM,,

# Source: ChEMBL document CHEMBL1144255, “A non-crosslinking platinum-acridine hybrid agent shows enhanced cytotoxicity compared to clinical BCNU and cisplatin in glioblastoma cells” (Bioorg Med Chem Lett, 2005)
